Experiments:
Type in all cases: cell-based
receptor 5-HT4(a) = target: T1, receptor 5-HT4(a) (Homo sapiens, UniProt Q13639); assay: cAMP formation in transiently transfected COS-7 cells; details: COS-7, 1 μM agonist, 15 minutes
T1 construct: The entire coding region of the cDNAs of 5-HT4(a), 5-HT4(b), 5-HT4(c) and 5-T4(d) was subcloned; expressed in transfected cells; host or cells: COS-7 cells, transient, pRC/CMV vector
Procedure: (§1) The entire coding region of the cDNAs of 5-HT4(a), 5-HT4(b), 5-HT4(c) and 5-T4(d) was subcloned into a mammalian expression vector pRC/CMV (Invitrogen, Carlsbad, Calif.). The transfections were carried out using polyethyleneimine (PEI) as described in Boussif et al. (1995). The cells were transfected using a mixture of DNA and of PEI in a ratio of 20 μmol of PEI/mg of DNA in 0.9% NaCl. For the radioligand binding assays, the COS-7 cells were seeded into culture flasks of 1.5×10^4 mm^2 one day before the transfection, at a density of 1×10^7 cells/flask, incubated for six hours with plasmid DNA (150 μg/flask) and collected 48 hours after transfection. For the measurement of cAMP formation, the COS-7 cells were seeded onto twelve-well plates one day before transfection, at a density of 5×10^5 cells/well, incubated for six hours with plasmid DNA (4 to 8 μg/well according to the experiments) and assayed 24 hours after the transfection. The cells transfected with the receptor 5-HT4 cDNA constructs were compared with the “blank”-transfected cells, which were exposed to the unmodified pRC/CMV plasmid.
(§2) To measure intracellular cAMP accumulation, the transiently transfected COS-7 cells were incubated, 24 hours after transfection, in Dulbecco's modified Eagle medium (DMEM) containing 5 mM theophylline, 10 mM HEPES and 10 μM pargyline for 15 minutes at 37° C., in the presence of 5% CO2. […] The reaction was stopped by aspiration of the medium and addition of 500 μl of ice-cold ethanol. After one hour at room temperature, the cells were scraped, and everything was collected and freeze-dried. The pellet was resuspended in 350 μl of PBS and centrifuged for 5 min at 300 g. The cAMP was quantified in the supernatant using a radioimmunological assay (E.R.I.A. assay kit from Pasteur Diagnostics 79830). Student's t tests were carried out using the program Quick TEst.

receptor 5-HT4(b) = target: T2, receptor 5-HT4(b) (Homo sapiens, UniProt Q13639); assay: as above; details: COS-7, 1 μM agonist, 15 minutes
T2 construct: The entire coding region of the cDNAs of 5-HT4(a), 5-HT4(b), 5-HT4(c) and 5-T4(d) was subcloned; expressed in transfected cells; host or cells: COS-7 cells, transient, pRC/CMV vector; cDNA amplified from human brain and ileum RNA
T2 sequence (Q13639 whole entry): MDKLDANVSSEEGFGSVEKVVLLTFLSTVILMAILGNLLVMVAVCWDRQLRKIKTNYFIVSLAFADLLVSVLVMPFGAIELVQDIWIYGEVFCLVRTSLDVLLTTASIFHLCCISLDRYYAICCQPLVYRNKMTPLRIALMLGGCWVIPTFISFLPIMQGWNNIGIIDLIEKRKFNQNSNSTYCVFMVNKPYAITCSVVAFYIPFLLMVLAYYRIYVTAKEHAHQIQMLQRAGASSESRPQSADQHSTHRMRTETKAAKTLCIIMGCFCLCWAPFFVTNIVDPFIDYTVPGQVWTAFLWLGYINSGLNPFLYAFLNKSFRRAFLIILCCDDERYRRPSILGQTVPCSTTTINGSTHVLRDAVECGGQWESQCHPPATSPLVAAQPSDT
Procedure: as §1, §2

[1] = system: “blank”-transfected COS-7 cells; assay: cAMP formation in control COS-7 cells; details: 1 μM
Procedure: as §1, §2

h5-HT4(c) = target: T3, h5-HT4(c) (Homo sapiens, UniProt Q13639); assay: cAMP formation in stably transfected CHO cells; details: 1 μM, 15 minutes
T3 construct: The entire coding region of the 5-HT4(c) and 5-HT4(d) cDNAs was subcloned; expressed in transfected cells
T3 sequence (Q13639 1-380 isoform Q13639-4): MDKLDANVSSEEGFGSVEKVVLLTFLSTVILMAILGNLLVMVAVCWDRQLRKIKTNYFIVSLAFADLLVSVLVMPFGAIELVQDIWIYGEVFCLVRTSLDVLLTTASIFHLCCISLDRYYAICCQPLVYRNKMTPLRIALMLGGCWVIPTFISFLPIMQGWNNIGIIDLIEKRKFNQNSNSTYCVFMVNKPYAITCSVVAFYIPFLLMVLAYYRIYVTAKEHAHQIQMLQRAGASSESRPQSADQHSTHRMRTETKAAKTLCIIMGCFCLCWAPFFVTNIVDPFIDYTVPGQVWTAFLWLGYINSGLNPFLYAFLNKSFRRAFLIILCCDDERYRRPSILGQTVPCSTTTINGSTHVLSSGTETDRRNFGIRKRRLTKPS
Procedure: (§3) The entire coding region of the 5-HT4(c) and 5-HT4(d) cDNAs was subcloned into a mammalian expression vector pRC/CMV (Invitrogen, Carlsbad, Calif.). The CHO cells are stably transfected by electroporation (250 V, 960 μF) with the plasmid PRc/CMV, containing the clone h5-HT4(c) or h5-HT4(d), cleaved with the restriction enzyme Kpn1 (10 μg of plasmid for 10^7 cells). The cells are cultured in HAM-F12 medium supplemented with 10% of heat-inactivated foetal calf serum. […] Twelve days later, the clones are individualized and cultured in 12-well plates. […] For the radioligand binding assays or for the measurement of cAMP formation, the cells transfected with the receptor 5-HT4 cDNA constructs were compared with the “blank”-transfected cells, which were exposed to the unmodified pRC/CMV plasmid.
(§4) To measure intracellular cAMP accumulation, the stably transfected CHO cells were incubated in the HAM-F12 medium containing 5 mM theophylline, 10 mM HEPES and 10 μM pargyline, for 15 minutes at 37° C. in the presence of 5% CO2. […] The reaction was stopped by aspiration of the medium and addition of 500 μl of ice-cold ethanol. After one hour at room temperature, the cells were scraped, and everything was collected and freeze-dried. […] The cAMP was quantified in the supernatant using a radio-immunological assay (E.R.I.A. assay kit from Immunotech, Marseilles). […]

h5-HT4(d) = target: T4, h5-HT4(d) (Homo sapiens, UniProt Q13639); assay: cAMP formation in stably transfected CHO cells; details: 1 μM, 15 minutes
T4 construct: The entire coding region of the 5-HT4(c) and 5-HT4(d) cDNAs was subcloned; expressed in transfected cells
T4 sequence (Q13639 1-360 isoform Q13639-3): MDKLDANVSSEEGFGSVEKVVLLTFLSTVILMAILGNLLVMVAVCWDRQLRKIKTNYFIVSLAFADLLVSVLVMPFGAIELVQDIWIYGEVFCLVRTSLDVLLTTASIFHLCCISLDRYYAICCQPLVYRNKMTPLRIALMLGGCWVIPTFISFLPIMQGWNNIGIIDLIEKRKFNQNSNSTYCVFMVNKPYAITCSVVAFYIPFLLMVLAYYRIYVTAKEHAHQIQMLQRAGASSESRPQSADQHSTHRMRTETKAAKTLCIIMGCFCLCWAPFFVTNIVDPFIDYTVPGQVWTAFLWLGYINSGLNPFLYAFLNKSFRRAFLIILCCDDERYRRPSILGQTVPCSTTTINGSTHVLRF
Procedure: as §3, §4

[2] = system: “blank”-transfected CHO cells; assay: cAMP formation in control CHO cells; details: 1 μM
Procedure: The entire coding region of the 5-HT4(c) and 5-HT4(d) cDNAs was subcloned into a mammalian expression vector pRC/CMV (Invitrogen, Carlsbad, Calif.). The CHO cells are stably transfected by electroporation (250 V, 960 μF) with the plasmid PRc/CMV, containing the clone h5-HT4(c) or h5-HT4(d), cleaved with the restriction enzyme Kpn1 (10 μg of plasmid for 10^7 cells). The cells are cultured in HAM-F12 medium supplemented with 10% of heat-inactivated foetal calf serum. […] Twelve days later, the clones are individualized and cultured in 12-well plates. Clone selection is carried out by studying the stimulation of the cAMP formed in the presence of 1 μM serotonin. For the radioligand binding assays or for the measurement of cAMP formation, the cells transfected with the receptor 5-HT4 cDNA constructs were compared with the “blank”-transfected cells, which were exposed to the unmodified pRC/CMV plasmid.
as §4, with “ethanol.” for “ethanol. After one hour at room temperature, the cells were scraped, and everything was collected and freeze-dried.”

receptor 5-HT4(d) = receptor 5-HT4(d) (Homo sapiens, UniProt Q13639); assay: cAMP formation in transiently transfected COS-7 cells; set-up: The entire coding region of the cDNAs of 5-HT4(a), 5-HT4(b), 5-HT4(c) and 5-T4(d) was subcloned; expressed in transfected cells; host or cells: COS-7 cells, transient, pRC/CMV vector; cDNA amplified from human brain and ileum RNA; details: COS-7, 1 μM agonist, 15 minutes
Sequence of receptor 5-HT4(d) (Q13639 1-360 isoform Q13639-3): as above
Procedure: The entire coding region of the cDNAs of 5-HT4(a), 5-HT4(b), 5-HT4(c) and 5-T4(d) was subcloned into a mammalian expression vector pRC/CMV (Invitrogen, Carlsbad, Calif.). The transfections were carried out using polyethyleneimine (PEI) as described in Boussif et al. (1995). The cells were transfected using a mixture of DNA and of PEI in a ratio of 20 μmol of PEI/mg of DNA in 0.9% NaCl. For the radioligand binding assays, the COS-7 cells were seeded into culture flasks of 1.5×10^4 mm^2 one day before the transfection, at a density of 1×10^7 cells/flask, incubated for six hours with plasmid DNA (150 μg/flask) and collected 48 hours after transfection. For the measurement of cAMP formation, the COS-7 cells were seeded onto twelve-well plates one day before transfection, at a density of 5×10^5 cells/well, incubated for six hours with plasmid DNA (4 to 8 μg/well according to the experiments) and assayed 24 hours after the transfection. […]
To measure intracellular cAMP accumulation, the transiently transfected COS-7 cells were incubated, 24 hours after transfection, in Dulbecco's modified Eagle medium (DMEM) containing 5 mM theophylline, 10 mM HEPES and 10 μM pargyline for 15 minutes at 37° C., in the presence of 5% CO2. […] The cAMP was quantified in the supernatant using a radioimmunological assay (E.R.I.A. assay kit from Pasteur Diagnostics 79830). […]

receptor 5-HT4(c) = receptor 5-HT4(c) (Homo sapiens, UniProt Q13639); assay: as above; set-up: The entire coding region of the cDNAs of 5-HT4(a), 5-HT4(b), 5-HT4(c) and 5-T4(d) was subcloned; expressed in transfected cells; host or cells: COS-7 cells, transient, pRC/CMV vector; cDNA amplified from human brain and ileum RNA; details: for increase in the basal cAMP level: 1 μM
Sequence of receptor 5-HT4(c) (Q13639 1-380 isoform Q13639-4): as the sequence (Q13639 1-380 isoform Q13639-4) above
Procedure: as §1, §2
ML10375 is capable of reducing the cAMP levels in the cells expressing the 5-HT4(c) and 5-HT4(d) isoforms in the absence of any stimulation of the receptor by 5-HT4 agonists. To test the hypothesis that ML10375 may constitute a reverse agonist for the human receptor 5-HT4, the 5-HT4(c) isoform was overexpressed in COS-7 cells in order to increase the frequency of the spontaneously active state of the receptor. The COS-7 cells were transfected with 4 to 8 μg of plasmid DNA per well in order to obtain an increase in the expression levels of the receptor 5-HT4(c). […] (FIG. 6B).

T1 sequence (Q13639 1-387 isoform Q13639-2): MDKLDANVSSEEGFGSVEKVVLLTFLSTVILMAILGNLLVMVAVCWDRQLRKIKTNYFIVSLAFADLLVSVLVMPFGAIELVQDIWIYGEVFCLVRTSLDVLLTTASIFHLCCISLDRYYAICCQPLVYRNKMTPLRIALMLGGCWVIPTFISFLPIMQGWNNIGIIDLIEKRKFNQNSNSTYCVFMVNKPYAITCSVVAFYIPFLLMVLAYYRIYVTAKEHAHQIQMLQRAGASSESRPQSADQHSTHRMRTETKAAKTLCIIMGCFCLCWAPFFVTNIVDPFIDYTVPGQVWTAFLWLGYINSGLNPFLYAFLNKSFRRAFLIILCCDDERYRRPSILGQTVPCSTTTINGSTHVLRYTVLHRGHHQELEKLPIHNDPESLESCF

NCCc1c[nH]c2ccc(O)cc12 [5-HT, 5-hydroxytryptamine]
increase in cAMP concentration (receptor 5-HT4(a)): 82%
increase in cAMP concentration (receptor 5-HT4(b)): 85%
effect on basal adenylate cyclase activity / basal cAMP levels [1]: no effect
increase in cAMP concentration (h5-HT4(c)): 91%
increase in cAMP concentration (h5-HT4(d)): 118%
effect on cAMP [2]: no effect
increase in cAMP concentration (receptor 5-HT4(d)): 77%
increase in cAMP concentration (receptor 5-HT4(c); COS-7, 1 μM agonist, 15 minutes): 64%
increase in the basal cAMP level (receptor 5-HT4(c); COS-7 transfected with 4 μg of plasmid DNA): 64%
increase in the basal cAMP level (receptor 5-HT4(c); COS-7 transfected with 8 μg of plasmid DNA): did not significantly increase

— US6506580B1, “Splice variants for human 5-HT4 serotonin receptor and their applications, in particular for screening” (Institut National de la Sante et de la Recherche Medicale …, priority 1997, dated 2003)
